Assay results as given in paper PMC2201222 (The Journal of General Physiology, 1968).

Columns and labels:
[1] = Electrical resistance and potential of thin lipid; design: species or system sheep; settings: about 22C, unbuffered pH 5.6
[2] = Activity toward Na+-K+ transport across sheep red cell and thin lipid membranes; settings: for selectivity for K+ over Na+ (section heading of Table II): sheep red cells and thin lipid membranes
[3] = type: physicochemical; settings: read-out by bilayer resistance
[4] = general statement, no method or reference given; cited from earlier work

Molecule: CO[C@@H]1C[C@@H](C[C@H]2CC[C@H](C)[C@H]([C@@H](C)C(=O)O)O2)O[C@]2(O[C@](C)([C@H]3CC[C@@](C)([C@@H]4O[C@@H]([C@H]5O[C@@](O)(CO)[C@H](C)C[C@@H]5C)C[C@@H]4C)O3)C[C@H]2C)[C@@H]1C [Nigericin]
- Bilayers, TNa/TK (ratio of the transference number for Na+ to that for K+) ([1]; compound 10^-6 M): < 0.I
- selectivity for K+ over Na+ (section heading of Table II) [2]: moderate to low selectivity

Molecule: C[C@@H]1C[C@H]2CC[C@H](O2)[C@H](C)C(=O)O[C@@H](C)C[C@@H]2CC[C@@H](O2)[C@@H](C)C(=O)O[C@H](C)C[C@H]2CC[C@H](O2)[C@H](C)C(=O)O[C@@H](C)C[C@@H]2CC[C@@H](O2)[C@@H](C)C(=O)O1 [Nonactin, nonactin]
- Bilayers, TNa/TK (ratio of the transference number for Na+ to that for K+) ([1]; compound 10^-7 M): < 0.01
- selectivity for K+ over Na+ (section heading of Table II) [2]: high selectivity

Molecule: C=C1NC(=O)CC[C@@H](C(=O)O)NC(=O)[C@H](NC(=O)[C@H](CCCCN)NC(=O)[C@@H](N)Cc2c[nH]c3ccccc23)CSC[C@@H](C(=O)N[C@@H]2C(=O)N3CCC[C@H]3C(=O)NCC(=O)N[C@H](C(=O)N[C@H](C(=O)N[C@@H]3C(=O)NCC(=O)N[C@@H](C)C(=O)N[C@@H](CC(C)C)C(=O)N[C@@H](CCC(N)=O)C(=O)N/C(=C/C)C(=O)N[C@H](C(=O)N[C@@H](Cc4ccccc4)C(=O)N[C@@H](CC(C)C)C(=O)N[C@@H](CCC(N)=O)C(=O)N[C@@H]4C(=O)N[C@@H](CC(C)C)C(=O)N[C@H]5C(=O)N[C@@H](CSC4C)C(=O)NC(=O)[C@H](CC(N)=O)N[C@H](C(=O)N[C@@H](CCCCN)C(=O)N[C@H](C(=O)NC(=C)C(=O)N[C@@H](CCCCN)C(=O)O)[C@@H](C)CC)CSC5C)CSC3C)C(C)C)CSC2C)N[C@@H](CC(C)C)C(=O)NC1=O (some centres unmarked) [Subtilin]
- activity on cation selectivity (section heading of Table II) ([2]; maximum conc. tested 10^-6 M): Inactive

Molecule: CC(C)[C@@H]1NC(=O)[C@H](C)OC(=O)[C@@H](C(C)C)NC(=O)[C@@H](C(C)C)OC(=O)[C@H](C(C)C)NC(=O)[C@H](C)OC(=O)[C@@H](C(C)C)NC(=O)[C@@H](C(C)C)OC(=O)[C@H](C(C)C)NC(=O)[C@H](C)OC(=O)[C@@H](C(C)C)NC(=O)[C@@H](C(C)C)OC1=O [Valinomycin, valinomycin]
- Partition coefficient between decane and NaCl (0.1 M), compared with KCl (0.1 M) ([3]; aqueous phase NaCl (0.1 M)): the same
- Partition coefficient between decane and pure H2O, compared with KCl (0.1 M) ([3]; aqueous phase pure H2O): the same
- solubility in water [4]: almost insoluble

Molecule: Bacitracin A
- activity on cation selectivity (section heading of Table II) ([2]; maximum conc. tested 10^-6 M): Inactive

Molecule: Gramicidin A
- selectivity for K+ over Na+ (section heading of Table II) [2]: moderate to low selectivity

Molecule: Gramicidin B
- Bilayers, TNa/TK (ratio of the transference number for Na+ to that for K+) ([1]; compound 10^-6 M): 0.4
- selectivity for K+ over Na+ (section heading of Table II) [2]: moderate to low selectivity

Molecule: Gramicidin C
- selectivity for K+ over Na+ (section heading of Table II) [2]: moderate to low selectivity

Molecule: Phalloidin
- activity on cation selectivity (section heading of Table II) ([2]; maximum conc. tested 10^-4 M): Inactive

Molecule: Polymixin B
- activity on cation selectivity (section heading of Table II) ([2]; maximum conc. tested 10^-5 M): Inactive

Molecule: Vernamycin
- activity on cation selectivity (section heading of Table II) ([2]; maximum conc. tested 10^-5 M): Inactive

Molecule: Viridogrisein
- activity on cation selectivity (section heading of Table II) ([2]; maximum conc. tested 10^-6 M): Inactive
